Measurements: patent publication US6423376B1, “Tartaric acid diesters as biodegradable surfactants” (Air Products and Chemicals, Inc., priority 2000, dated 2002)
Structures can show the parent of a compound that is named as a salt.

Experiments:
[1] = Dynamic surface tension of aqueous solutions, maximum bubble pressure method; format: physicochemical
Text: where R1 and R2 are independently a C4 to C6 alkyl group, but preferably are the same; provided that when the water-based composition is an ink, R1 and R2 are independently a C5 or C6 alkyl group. […] The maximum-bubble-pressure method of measuring surface tension is described in Langmuir 1986, 2, 428-432, which is incorporated by reference.
In the following Examples dynamic surface tension data were obtained for aqueous solutions of various compounds using the maximum bubble pressure method at bubble rates from 0.1 bubbles/second (b/s) to 20 b/s. […] In practical terms, high bubble rates correspond to high printing speeds in lithographic printing, high spray or roller velocities in coating applications, and rapid application rates for agricultural products.
Dynamic surface tension data were obtained for a 0.1 wt % aqueous solution of the 9.5 mole ethoxylate of nonylphenol using the maximum bubble pressure method at bubble rates from 0.1 bubbles/second (b/s) to 20 b/s.
(§1) Solutions of the materials of Examples 1-12 in distilled water were prepared. […] The pC20 value is defined as the negative logarithm of the molar concentration of surfactant required to decrease the surface tension of an aqueous solution to 52.1 dyne/cm, that is, 20 dyne/cm below that of pure water when the measurement is performed at 0.1 b/s. This value is a measure of the efficiency of a surfactant. […] In addition, the relative efficiency of surfactants can be obtained by comparing surface tension reduction of solutions containing the same amount of different surfactants. Such data is given for 0.1 wt % solutions of the tartrates at 1.0 and 6.0 bubbles/second (b/s). The solubility limit was determined by intersection of the linear portion of a surface tension/In concentration curve with the limiting surface tension as is described in many textbooks. The limiting surface tensions at 0.1, 1, 6 and 20 b/s represent the lowest surface tensions in water which can be achieved at the given surface creation rates for a given surfactant regardless of the amount of surfactant used and is used to evaluate the effectiveness of a surfactant. These values give information about the relative ability to a surfactant to reduce surface defects under near-equilibrium conditions (0.1 b/s) through very dynamic conditions (20 b/s). Lower surface tensions would allow the elimination of defects upon application of a formulation onto lower energy surfaces.

[2] = Solubility limit in water from surface tension/ln concentration curve; format: physicochemical; conditions: in distilled water
Protocol: as §1

[3] = Foam test based upon ASTM D 1173-53; format: physicochemical; conditions: 0.1 wt % solution
Text: The foaming properties of a 0.1 wt % solution of the comparative example (nonylphenol 9.5 mole ethoxylate) and various dialkyltartrates (diisopropyl-(D)-tartrate, dibutyl-L-tartrate. diisobutyl-DL-tartrate, di-sec-butyl-DL-tartrate, dipentyl-DL-tartrate, diisoamyl-DL-tartrate, di-(2-methyl-butyl)-DL-tartrate, dineopentyl-DL-tartrate, dihexyl-DL-tartrate, di-(4-methyl-2-pentyl)-DL-tartrate, dibenzyl-DL-tartrate and di-(2-ethyl-hexyl)-DL-tartrate) were examined using a procedure based upon ASTM D 1173-53. In this test, a 0.1 wt % solution of the surfactant is added from an elevated foam pipette to a foam receiver containing the same solution. The foam height is measured at the completion of the addition (“Initial Foam Height”) and the time required for the foam to dissipate at the air-liquid interface (“Time to 0 Foam”) is recorded. This test provides a comparison between the foaming characteristics of various surfactants. In general, in coatings, inks, adhesives and agricultural formulations, foam is undesirable because is complicates handling and can lead to coating and print defects, and to inefficient application of agricultural materials.

| Structure (SMILES) | melting point [°C] | γ (0.1 wt % solution) (1 b/s) ([1]; 0.1 wt % solution, 1 b/s) [Dyne/cm] | γ (0.1 wt % solution) (6 b/s) ([1]; 0.1 wt % solution, 6 b/s) [Dyne/cm] | limiting γ (0.1 b/s) ([1]; lowest surface tension in water, 0.1 b/s) [Dyne/cm] | limiting γ (1 b/s) ([1]; lowest surface tension in water, 1 b/s) [Dyne/cm] | limiting γ (6 b/s) ([1]; lowest surface tension in water, 6 b/s) [Dyne/cm] | limiting γ (20 b/s) ([1]; lowest surface tension in water, 20 b/s) [Dyne/cm] | pC20 ([1]; negative logarithm of molar concentration giving 52.1 dyne/cm at 0.1 b/s) | solubility limit [2] [Weight %] | initial foam [3] [cm] | time to zero foam ([3]; unit not given) |
| --- | --- | --- | --- | --- | --- | --- | --- | --- | --- | --- | --- |
| CC(C)(C)COC(=O)C(O)C(O)C(=O)OCC(C)(C)C (racemic) (as salt: tartrate) [Example 8, Dineopentyl-DL-tartrate] | 75 |  |  |  |  |  |  |  |  |  |  |
| CCCCCOC(=O)C(O)C(O)C(=O)OCCCCC (racemic) [Example 5, Dipentyl-DL-tartrate] |  | 36.8 | 37.8 | 35.9 | 36.8 | 37.8 | 41.6 | 3.3 | 0.1 | 0 | 0 |
